Reference: ChEMBL document CHEMBL4602665, “Amphiepicoccins A-J: Epipolythiodioxopiperazines from the Fish-Gill-Derived Fungus Epicoccum nigrum HDN17-88” (J Nat Prod, 2020)
In brackets after ≈: the same amount, converted by molar mass.

The molecules below were run on Bacillus subtilis (assay: Growth inhibition of Bacillus subtilis). Conditions: not given.
Format: functional

MIC [µM]	SMILES
13 (≈ 6.51 µg/mL)	CO[C@H]1CC(=O)[C@@H]2C[C@@]3(SC)C(=O)N4[C@@H]5[C@@H](O)[C@H]6CC(=O)[C@@H]5C[C@@]4(SS6)C(=O)N3[C@@H]2[C@H]1O
25 (≈ 11.7 µg/mL)	CO[C@H]1CC(=O)[C@@H]2C[C@@]3(SC)C(=O)N4[C@@H]5[C@@H](O)[C@H]6CC(=O)[C@@H]5C[C@@]4(S6)C(=O)N3[C@@H]2[C@H]1O

What follows are molecules tested on Human alphaherpesvirus 2 (assay: Antiviral activity against Herpes simplex virus 2 infected in African green monkey Vero cells assessed as inhibition of virus-induced cytopathogenic effect after 24 hrs by crystal violet staining based assay). Conditions: Human alphaherpesvirus 2, Vero.
Format: functional, organism-based

SMILES	IC50 [µM]
CS[C@@]12C[C@H]3C(=O)C=C[C@H](O)[C@H]3N1C(=O)[C@@]13C[C@H]4C(=O)C[C@@H](SS1)[C@H](O)[C@H]4N3C2=O	64
CO[C@H]1CC(=O)[C@@H]2C[C@@]3(SC)C(=O)N4[C@@H]5[C@@H](O)[C@H]6CC(=O)[C@@H]5C[C@@]4(S6)C(=O)N3[C@@H]2[C@H]1O	29

Other lines, results leading:

IC50 [µM]	SMILES
70	O=C1C[C@H]2SS[C@@]34C[C@@H]1[C@@H]([C@H]2O)N3C(=O)c1cc2cc(O)ccc2n1C4=O
31	Nc1nc2c(ncn2COCCO)c(=O)[nH]1 [ACYCLOVIR]
